Measurements reported in PubChem BioAssay AID330 (DTP/NCI, 2004).
“And” between values parts separate entries of the source, which are not always exact repeats. Equal entries are not always repeated. Toxic doses and inconclusive results are not listed.

Tested on: P388 leukemia ip, CD2F1 mice, survival T/C
Test: NCI In Vivo Anticancer Drug Screen. Data for tumor model P388 Leukemia (intraperitoneal) in CD2F1 (CDF1) mice
Settings: endpoint: median survival time, higher = longer survival
Method in brief: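 Mice carrying the transplanted tumor received test compound or vehicle. Survival was recorded in each group, and the value is the treated-group measurement divided by that of the vehicle-treated control group.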

[1] = dose: 25.0 mg/kg/injection, schedule: Q01DX009 (ip), vehicle: saline with Tween-80
[2] = dose: 50.0 mg/kg/injection, schedule: Q01DX009 (ip), vehicle: saline with Tween-80
[3] = dose: 100.0 mg/kg/injection, schedule: Q01DX009 (ip), vehicle: saline with Tween-80
[4] = dose: 60.0 mg/kg/injection, schedule: Q01DX005 (ip), vehicle: saline with Tween-80
[5] = dose: 120.0 mg/kg/injection, schedule: Q01DX005 (ip), vehicle: saline with Tween-80
[6] = dose: 240.0 mg/kg/injection, schedule: Q01DX005 (ip), vehicle: saline with Tween-80
[7] = dose: 50.0 mg/kg/injection, schedule: Q01DX009 (ip), vehicle: saline
[8] = dose: 3.12 mg/kg/injection, schedule: Q01DX009 (ip), vehicle: saline with Tween-80
[9] = dose: 100.0 mg/kg/injection, schedule: Q01DX009 (ip), vehicle: saline

For `N#Cc1ncc(-c2ccccc2)nc1Cl`, the T/C (dose: 6.25 mg/kg/injection, schedule: Q01DX009 (ip), vehicle: saline with Tween-80) was 100 % of control, the T/C (dose: 12.5 mg/kg/injection, schedule: Q01DX009 (ip), vehicle: saline with Tween-80) was 104 % of control and the T/C [1] was 100 % of control. The T/C [2] was 110 % of control, the T/C (dose: 50.0 mg/kg/injection, schedule: Q04DX003 (ip), vehicle: saline with Tween-80) was 100 % of control and the T/C [3] was 120 % of control. For the same molecule, the T/C (dose: 100.0 mg/kg/injection, schedule: Q04DX003 (ip), vehicle: saline with Tween-80) was 105 % of control and the T/C (dose: 200.0 mg/kg/injection, schedule: Q04DX003 (ip), vehicle: saline with Tween-80) was 100 % of control.

With `O=C1C2C3C=CC(O3)C2C(=O)N1/N=C/c1ccc2c(c1)OCO2` (configuration not stated) the T/C (dose: 50.0 mg/kg/injection, schedule: Q01DX005 (ip), vehicle: saline with Tween-80) was 97 % of control, the T/C (dose: 100.0 mg/kg/injection, schedule: Q01DX005 (ip), vehicle: saline with Tween-80) was 102 % of control and the T/C (dose: 200.0 mg/kg/injection, schedule: Q01DX005 (ip), vehicle: saline with Tween-80) was 93 % of control.

In the case of `CCOC(=O)C(=O)/C=C/[C@H]1[C@H](C)CC=C[C@H]1NC(=O)OCc1ccccc1`, the T/C [4] is reported as 103 % of control, the T/C [5] is reported as 99 % of control and the T/C [6] is reported as 97 % of control.

With `COCc1ccccc1-n1nccc1S(C)=O` (configuration not stated) the T/C [4] was 106 % of control, the T/C [5] was 98 % of control and the T/C [6] was 106 % of control.

With `N=Cc1c(O)n(C2CCCCC2)c(=O)[nH]c1=O` the T/C [3] was 90 % of control and the T/C (dose: 400.0 mg/kg/injection, schedule: Q01DX009 (ip), vehicle: saline with Tween-80) was 95 % of control.

For `CC[C@H]1C[C@H]2CN(CCc3c([nH]c4ccccc34)[C@@](C(=O)OC)(c3cc4c(cc3OC)N(C=O)[C@H]3[C@@](O)(C(=O)OC)[C@H](OC(C)=O)[C@]5(CC)C=CCN6CC[C@]43[C@@H]65)C2)C1`, the T/C (dose: 0.5 mg/kg/injection, schedule: Q01DX001 (ip), vehicle: water) was 155 % of control, the T/C (dose: 1.0 mg/kg/injection, schedule: Q01DX001 (ip), vehicle: water) was 156 % of control and 174 % of control and the T/C (dose: 2.0 mg/kg/injection, schedule: Q01DX001 (ip), vehicle: water) was 180 % of control. For the same molecule, the T/C (dose: 4.0 mg/kg/injection, schedule: Q01DX001 (ip), vehicle: water) was 90 % of control.

`O=C1CC2(CCc3ccccc32)C(=O)N1CN1CCOCC1` (configuration not stated) was tested, and the T/C [4] was 100 % of control, the T/C [5] was 104 % of control and the T/C [6] was 100 % of control.

`COC(=O)C1C2CCC1C2` (configuration not stated) was tested, and the T/C (dose: 25.0 mg/kg/injection, schedule: Q01DX009 (ip), vehicle: other) was 97 % of control, the T/C (dose: 50.0 mg/kg/injection, schedule: Q01DX009 (ip), vehicle: other) was 110 % of control and the T/C (dose: 100.0 mg/kg/injection, schedule: Q01DX009 (ip), vehicle: other) was 105 % of control. For the same molecule, the T/C (dose: 200.0 mg/kg/injection, schedule: Q01DX009 (ip), vehicle: other) was 107 % of control and the T/C (dose: 400.0 mg/kg/injection, schedule: Q01DX009 (ip), vehicle: other) was 110 % of control.

For `C=CCc1ccc(O)cc1`, the T/C (dose: 25.0 mg/kg/injection, schedule: Q01DX009 (ip), vehicle: Klucel (hydroxypropylcellulose) (HPC)) was 93 % of control, the T/C (dose: 50.0 mg/kg/injection, schedule: Q01DX009 (ip), vehicle: Klucel (hydroxypropylcellulose) (HPC)) was 99 % of control and the T/C (dose: 100.0 mg/kg/injection, schedule: Q01DX009 (ip), vehicle: Klucel (hydroxypropylcellulose) (HPC)) was 107 % of control. The T/C (dose: 200.0 mg/kg/injection, schedule: Q01DX009 (ip), vehicle: Klucel (hydroxypropylcellulose) (HPC)) was 99 % of control.

In the case of `CO[C@@]12[C@H](COC(N)=O)C3=C(C(=O)C(C)=C(N)C3=O)N1C[C@H]1[C@@H]2N1C(=O)[C@@H]1N2C(=O)[C@@H](NC(=O)Cc3ccccc3)[C@H]2SC1(C)C`, the T/C (dose: 6.25 mg/kg/injection, schedule: Q01DX009 (ip), vehicle: saline) is reported as 116 % of control, the T/C (dose: 12.5 mg/kg/injection, schedule: Q01DX009 (ip), vehicle: saline) is reported as 155 % of control and the T/C (dose: 25.0 mg/kg/injection, schedule: Q01DX009 (ip), vehicle: saline) is reported as 155 % of control. For the same molecule, the T/C [7] was 165 % of control.

In the case of `CC1OC(=S)N(c2cccc3ccccc23)C1=O` (configuration not stated), the T/C (dose: 100.0 mg/kg/injection, schedule: Q01DX001 (ip), vehicle: saline with Tween-80) is reported as 93 % of control, the T/C (dose: 200.0 mg/kg/injection, schedule: Q01DX001 (ip), vehicle: saline with Tween-80) is reported as 90 % of control and the T/C (dose: 400.0 mg/kg/injection, schedule: Q01DX001 (ip), vehicle: saline with Tween-80) is reported as 94 % of control.

`NC(=S)N/N=C/c1cc([N+](=O)[O-])ccc1Cl` was tested, and the T/C (dose: 50.0 mg/kg/injection, schedule: Q01DX009 (ip), vehicle: suspension in saline) was 94 % of control, the T/C (dose: 100.0 mg/kg/injection, schedule: Q01DX009 (ip), vehicle: suspension in saline) was 92 % of control and the T/C (dose: 200.0 mg/kg/injection, schedule: Q01DX009 (ip), vehicle: suspension in saline) was 94 % of control.

For `ClCCN(CCCl)CCCN1c2ccccc2Sc2ccccc21`, the T/C [8] was 122 % of control.

With `Cn1nc(-c2ccc(Cl)c(Cl)c2)nc2c(=O)n(C)c(=O)nc1-2` the T/C (dose: 12.5 mg/kg/injection, schedule: Q01DX001 (ip), vehicle: Klucel (hydroxypropylcellulose) (HPC)) was 102 % of control, the T/C (dose: 25.0 mg/kg/injection, schedule: Q01DX001 (ip), vehicle: Klucel (hydroxypropylcellulose) (HPC)) was 107 % of control and the T/C (dose: 50.0 mg/kg/injection, schedule: Q01DX001 (ip), vehicle: Klucel (hydroxypropylcellulose) (HPC)) was 103 % of control and 114 % of control.

For `N#CCCNc1ccc(F)cc1`, the T/C [7] was 100 % of control, the T/C [9] was 109 % of control and the T/C (dose: 200.0 mg/kg/injection, schedule: Q01DX009 (ip), vehicle: saline) was 104 % of control.

In the case of `CC(=O)/C=C(\C)Nc1noc(-c2ccccc2)n1`, the T/C (dose: 4.38 mg/kg/injection, schedule: Q01DX005 (ip), vehicle: Klucel (hydroxypropylcellulose) (HPC)) is reported as 102 % of control, the T/C (dose: 8.75 mg/kg/injection, schedule: Q01DX005 (ip), vehicle: Klucel (hydroxypropylcellulose) (HPC)) is reported as 96 % of control and the T/C (dose: 17.5 mg/kg/injection, schedule: Q01DX005 (ip), vehicle: Klucel (hydroxypropylcellulose) (HPC)) is reported as 101 % of control.

For `Cc1cc(C)nc(NS(=O)(=O)c2ccc(Nc3c4ccccc4nc4ncccc34)cc2)n1`, the T/C [4] was 97 % of control, the T/C [5] was 90 % of control and the T/C [6] was 90 % of control.

`COc1ccc(-c2coc3cc(OC4OC(CO)C(O)C(O)C4O)cc(O)c3c2=O)cc1` (configuration not stated) was tested, and the T/C [1] was 98 % of control, the T/C [2] was 92 % of control and the T/C [3] was 94 % of control.

With `O=C1CSc2c(ccc3c4c([nH]c23)C(=O)CCC4)N1` the T/C (dose: 100.0 mg/kg/injection, schedule: Q01DX001 (ip), vehicle: Klucel (hydroxypropylcellulose) (HPC)) was 99 % of control, the T/C (dose: 200.0 mg/kg/injection, schedule: Q01DX001 (ip), vehicle: Klucel (hydroxypropylcellulose) (HPC)) was 90 % of control and the T/C (dose: 400.0 mg/kg/injection, schedule: Q01DX001 (ip), vehicle: Klucel (hydroxypropylcellulose) (HPC)) was 97 % of control.

`BrCc1ccc2c(c1)CCC2` was tested, and the T/C (dose: 50.0 mg/kg/injection, schedule: Q01DX009 (ip), vehicle: distilled water + alcohol) was 106 % of control, the T/C (dose: 100.0 mg/kg/injection, schedule: Q01DX009 (ip), vehicle: distilled water + alcohol) was 113 % of control and the T/C (dose: 200.0 mg/kg/injection, schedule: Q01DX009 (ip), vehicle: distilled water + alcohol) was 97 % of control.

`COc1cc2c(c(OC)c1OC)-c1cc3c(cc1CC(COC(C)=O)C(COC(C)=O)C2)OCO3` (configuration not stated) was tested, and the T/C (dose: 6.25 mg/kg/injection, schedule: Q04DX002 (ip), vehicle: saline with Tween-80) was 103 % of control, the T/C (dose: 12.5 mg/kg/injection, schedule: Q04DX002 (ip), vehicle: saline with Tween-80) was 101 % of control and the T/C (dose: 25.0 mg/kg/injection, schedule: Q04DX002 (ip), vehicle: saline with Tween-80) was 100 % of control.

With `CCCCCCOCCN1CCN(CCCN2c3ccccc3Sc3ccc(C(F)(F)F)cc32)CC1` the T/C [8] was 100 % of control.

In the case of `Cc1cc2c(cc1C)C(O)CCC(=O)N2` (configuration not stated), the T/C [4] is reported as 95 % of control, the T/C [5] is reported as 91 % of control and the T/C [6] is reported as 87 % of control.

In the case of `CC1C(c2ccccc2)NC(c2ccccc2)C(C)C1O` (configuration not stated), the T/C (dose: 50.0 mg/kg/injection, schedule: Q01DX005 (ip), vehicle: Klucel (hydroxypropylcellulose) (HPC)) is reported as 101 % of control, the T/C (dose: 100.0 mg/kg/injection, schedule: Q01DX005 (ip), vehicle: Klucel (hydroxypropylcellulose) (HPC)) is reported as 98 % of control and the T/C (dose: 200.0 mg/kg/injection, schedule: Q01DX005 (ip), vehicle: Klucel (hydroxypropylcellulose) (HPC)) is reported as 105 % of control.

In the case of `O=C1/C(=C\c2ccccc2)C/C1=C\c1ccccc1`, the T/C (dose: 100.0 mg/kg/injection, schedule: Q04DX003 (ip), vehicle: Klucel (hydroxypropylcellulose) (HPC)) is reported as 97 % of control, the T/C (dose: 200.0 mg/kg/injection, schedule: Q04DX003 (ip), vehicle: Klucel (hydroxypropylcellulose) (HPC)) is reported as 100 % of control and the T/C (dose: 400.0 mg/kg/injection, schedule: Q04DX003 (ip), vehicle: Klucel (hydroxypropylcellulose) (HPC)) is reported as 95 % of control.

For `NCCc1ccc([N+](=O)[O-])cc1`, the T/C [7] was 104 % of control and 96 % of control and the T/C [9] was 98 % of control and 105 % of control.
